Results on one compound are retold here after article PMC2847038 (Hippocampus, 2010).

This assay deals with T1, fatty acid amide hydrolase (FAAH) (Rattus norvegicus, UniProt P97612).
T1 sequence (P97612 1-579): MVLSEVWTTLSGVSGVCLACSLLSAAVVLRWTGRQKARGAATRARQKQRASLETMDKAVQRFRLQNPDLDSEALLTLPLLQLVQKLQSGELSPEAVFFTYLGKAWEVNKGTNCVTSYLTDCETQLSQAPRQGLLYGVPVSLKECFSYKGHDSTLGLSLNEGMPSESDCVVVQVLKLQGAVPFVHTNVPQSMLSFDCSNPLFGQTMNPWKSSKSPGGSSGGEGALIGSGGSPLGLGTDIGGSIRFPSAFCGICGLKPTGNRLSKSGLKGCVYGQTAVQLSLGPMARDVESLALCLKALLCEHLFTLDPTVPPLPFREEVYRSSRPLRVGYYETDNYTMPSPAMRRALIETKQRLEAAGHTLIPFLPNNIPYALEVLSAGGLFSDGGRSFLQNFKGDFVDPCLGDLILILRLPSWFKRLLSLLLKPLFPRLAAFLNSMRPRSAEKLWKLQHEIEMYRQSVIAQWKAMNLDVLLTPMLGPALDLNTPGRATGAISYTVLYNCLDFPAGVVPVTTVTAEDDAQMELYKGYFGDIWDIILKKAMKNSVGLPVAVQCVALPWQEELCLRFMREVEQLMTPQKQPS
Description: Fatty acid amide hydrolase activity assay. In kind it is biochemical, Sprague-Dawley rats. Conditions: hippocampus membranes.

Regarding `CCCCC/C=C\C/C=C\C/C=C\C/C=C\CCCC(=O)NCCO` [anandamide, N-arachidonylethanolamide], the “Vmax (maximal hydrolytic activity of FAAH)” value is recorded as 619.4 +/- 56.9 pmol/mg protein (CON animals) and 556.7 +/- 99.4 pmol/mg protein (VEx animals).
